Assay results published in PubChem BioAssay AID1918937 (Molecular Pharmacology Branch, DTP, NCI, 2023).
Where “and” joins values, the source holds several entries; their conditions need not be identical. Identical values can stand only once. Each block holds one compound with its values, some of them ahead of it.

System: 521955-158-R2-J5-PDC complex spheroid viability
Experiment: Anticancer human tumor 521955-158-R2-J5-PDC patient-derived pancreatic carcinoma cell line growth inhibition
Details: for viability, T/C: stronger effect = lower value
Summary of the method: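 Multicellular complex spheroids of tumor cells with human endothelial cells (HUVEC) and mesenchymal stem cells; the LSD1 inhibitor iadademstat was combined with standard-of-care or investigational agents. Top concentration at or near clinical Cmax, half-log dilutions; final DMSO ≤0.25%.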

[1] = curve of first compound, second compound 0.1 µM
[2] = curve of first compound, second compound 0.316 µM
[3] = curve of first compound, second compound 1 µM
[4] = curve of first compound, second compound 3.16 µM
[5] = curve of first compound, second compound 10 µM
[6] = second compound 0.1 µM, first compound 0.0316 µM
[7] = second compound 0.1 µM, first compound 0.1 µM
[8] = second compound 0.1 µM, first compound 0.316 µM
[9] = second compound 0.1 µM, first compound 1 µM
[10] = second compound 0.1 µM, first compound 3.16 µM
[11] = second compound 0.1 µM, first compound 10 µM
[12] = second compound 0.316 µM, first compound 0.0316 µM
[13] = second compound 0.316 µM, first compound 0.1 µM
[14] = second compound 0.316 µM, first compound 0.316 µM
[15] = second compound 0.316 µM, first compound 1 µM
[16] = second compound 0.316 µM, first compound 3.16 µM
[17] = second compound 0.316 µM, first compound 10 µM
[18] = second compound 1 µM, first compound 0.0316 µM
[19] = second compound 1 µM, first compound 0.1 µM
[20] = second compound 1 µM, first compound 0.316 µM
[21] = second compound 1 µM, first compound 1 µM
[22] = second compound 1 µM, first compound 3.16 µM
[23] = second compound 1 µM, first compound 10 µM
[24] = second compound 3.16 µM, first compound 0.0316 µM
[25] = second compound 3.16 µM, first compound 0.1 µM
[26] = second compound 3.16 µM, first compound 0.316 µM
[27] = second compound 3.16 µM, first compound 1 µM
[28] = second compound 3.16 µM, first compound 3.16 µM
[29] = second compound 3.16 µM, first compound 10 µM
[30] = second compound 10 µM, first compound 0.0316 µM
[31] = second compound 10 µM, first compound 0.1 µM
[32] = second compound 10 µM, first compound 0.316 µM
[33] = second compound 10 µM, first compound 1 µM
[34] = second compound 10 µM, first compound 3.16 µM
[35] = second compound 10 µM, first compound 10 µM
[36] = second compound 0.1 µM, first compound 0.00316 µM
[37] = second compound 0.1 µM, first compound 0.01 µM
[38] = second compound 0.316 µM, first compound 0.00316 µM
[39] = second compound 0.316 µM, first compound 0.01 µM
[40] = second compound 1 µM, first compound 0.00316 µM
[41] = second compound 1 µM, first compound 0.01 µM
[42] = second compound 3.16 µM, first compound 0.00316 µM
[43] = second compound 3.16 µM, first compound 0.01 µM
[44] = second compound 10 µM, first compound 0.00316 µM
[45] = second compound 10 µM, first compound 0.01 µM
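Note: spheroids exposed to agents for seven days.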
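Throughout, for viability, T/C: percent of DMSO vehicle control luminescence viability.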

Compound: CC1COCCN1c1cc(C2(S(C)(=N)=O)CC2)nc(-c2ccnc3[nH]ccc23)n1 (stereo not drawn) + NC1CCC(NC2CC2c2ccccc2)CC1
- IC50 [1]: 528 nM
- IC50 [2]: 505 nM
- IC50 [3]: 531 nM
- IC50 [4]: 500 nM
- IC50 [5]: 446 nM
- viability, T/C [6]: 104%
- viability, T/C [7]: 87.7%
- viability, T/C [8]: 76.6%
- viability, T/C [9]: 16.5%
- viability, T/C [10]: 12.6%
- viability, T/C [11]: 16.9%
- viability, T/C [12]: 88.7%
- viability, T/C [13]: 82.8%
- viability, T/C [14]: 71%
- viability, T/C [15]: 19.3%
- viability, T/C [16]: 13.2%
- viability, T/C [17]: 16.1%
- viability, T/C [18]: 79.7%
- viability, T/C [19]: 90.3%
- viability, T/C [20]: 74.7%
- viability, T/C [21]: 19.8%
- viability, T/C [22]: 12.3%
- viability, T/C [23]: 15.3%
- viability, T/C [24]: 97.6%
- viability, T/C [25]: 93.9%
- viability, T/C [26]: 71.5%
- viability, T/C [27]: 17.6%
- viability, T/C [28]: 11.3%
- viability, T/C [29]: 14.8%
- viability, T/C [30]: 85%
- viability, T/C [31]: 81.6%
- viability, T/C [32]: 64.4%
- viability, T/C [33]: 16.2%
- viability, T/C [34]: 12.3%
- viability, T/C [35]: 16.7%

Compound: O=C(c1cc(Cc2n[nH]c(=O)c3ccccc23)ccc1F)N1CCN(C(=O)C2CC2)CC1 + NC1CC1c1ccc(-c2cccc(O)c2)cc1
- IC50 [1]: > 10000 nM
- IC50 [2]: > 10000 nM
- IC50 [3]: > 10000 nM
- IC50 [4]: > 10000 nM
- IC50 [5]: > 10000 nM
- viability, T/C [6]: 80.9%
- viability, T/C [7]: 87.5%
- viability, T/C [8]: 88.4%
- viability, T/C [9]: 87.4%
- viability, T/C [10]: 81.5%
- viability, T/C [11]: 69.1%
- viability, T/C [12]: 90.5%
- viability, T/C [13]: 82.3%
- viability, T/C [14]: 89.1%
- viability, T/C [15]: 74.7%
- viability, T/C [16]: 74.6%
- viability, T/C [17]: 66.2%
- viability, T/C [18]: 77.9%
- viability, T/C [19]: 79.7%
- viability, T/C [20]: 79.7%
- viability, T/C [21]: 77.1%
- viability, T/C [22]: 67%
- viability, T/C [23]: 59.5%
- viability, T/C [24]: 81.8%
- viability, T/C [25]: 82.2%
- viability, T/C [26]: 83.3%
- viability, T/C [27]: 75.6%
- viability, T/C [28]: 69.1%
- viability, T/C [29]: 55.8%
- viability, T/C [30]: 87.7%
- viability, T/C [31]: 84.9%
- viability, T/C [32]: 83.4%
- viability, T/C [33]: 78.4%
- viability, T/C [34]: 68.1%
- viability, T/C [35]: 55.7%

Compound: Cn1ncnc1C1c2n[nH]c(=O)c3cc(F)cc(c23)NC1c1ccc(F)cc1 (stereo not drawn) + NC1CCC(NC2CC2c2ccccc2)CC1
- IC50 [1]: > 100 nM
- IC50 [2]: > 100 nM
- IC50 [3]: > 100 nM
- IC50 [4]: > 100 nM
- IC50 [5]: > 100 nM
- viability, T/C (second compound 0.1 µM, first compound 0.000316 µM): 109%
- viability, T/C (second compound 0.1 µM, first compound 0.001 µM): 99.9%
- viability, T/C [36]: 98%
- viability, T/C [37]: 94.1%
- viability, T/C [6]: 83%
- viability, T/C [7]: 87.3%
- viability, T/C (second compound 0.316 µM, first compound 0.000316 µM): 103%
- viability, T/C (second compound 0.316 µM, first compound 0.001 µM): 92.4%
- viability, T/C [38]: 89.8%
- viability, T/C [39]: 92.8%
- viability, T/C [12]: 85.1%
- viability, T/C [13]: 80.6%
- viability, T/C (second compound 1 µM, first compound 0.000316 µM): 90.5%
- viability, T/C (second compound 1 µM, first compound 0.001 µM): 95.5%
- viability, T/C [40]: 90.1%
- viability, T/C [41]: 87.2%
- viability, T/C [18]: 81.8%
- viability, T/C [19]: 73.6%
- viability, T/C (second compound 3.16 µM, first compound 0.000316 µM): 100%
- viability, T/C (second compound 3.16 µM, first compound 0.001 µM): 96.5%
- viability, T/C [42]: 95%
- viability, T/C [43]: 85.9%
- viability, T/C [24]: 85.2%
- viability, T/C [25]: 76.3%
- viability, T/C (second compound 10 µM, first compound 0.000316 µM): 93.7%
- viability, T/C (second compound 10 µM, first compound 0.001 µM): 97.2%
- viability, T/C [44]: 92.8%
- viability, T/C [45]: 84.6%
- viability, T/C [30]: 82%
- viability, T/C [31]: 74.2%

Compound: Nc1ncn(C2CC(O)C(CO)O2)c(=O)n1 (stereo not drawn) + NC1CCC(NC2CC2c2ccccc2)CC1
- IC50 [1]: > 1000 nM
- IC50 [2]: > 1000 nM
- IC50 [3]: > 1000 nM
- IC50 [4]: 941 nM
- IC50 [5]: > 1000 nM
- viability, T/C [36]: 101%
- viability, T/C [37]: 108%
- viability, T/C [6]: 93.6%
- viability, T/C [7]: 79.7%
- viability, T/C [8]: 69.6%
- viability, T/C [9]: 64.2%
- viability, T/C [38]: 97.4%
- viability, T/C [39]: 96%
- viability, T/C [12]: 85.6%
- viability, T/C [13]: 83.4%
- viability, T/C [14]: 63%
- viability, T/C [15]: 55.3%
- viability, T/C [40]: 99.3%
- viability, T/C [41]: 90.1%
- viability, T/C [18]: 85.3%
- viability, T/C [19]: 74.4%
- viability, T/C [20]: 60.5%
- viability, T/C [21]: 56.3%
- viability, T/C [42]: 96.4%
- viability, T/C [43]: 95.4%
- viability, T/C [24]: 93.1%
- viability, T/C [25]: 75.4%
- viability, T/C [26]: 59.1%
- viability, T/C [27]: 49%
- viability, T/C [44]: 95.3%
- viability, T/C [45]: 91%
- viability, T/C [30]: 92.8%
- viability, T/C [31]: 76.5%
- viability, T/C [32]: 62.5%
- viability, T/C [33]: 51.6%

Continued, in another order:

- IC50 (curve of compound): > 1000 nM
Compound: Nc1ncn(C2CC(O)C(CO)O2)c(=O)n1 (stereo not drawn)
- viability, T/C (compound 0.00316 µM): 99.5% and 107%
- viability, T/C (compound 0.01 µM): 103% and 102%
- viability, T/C (compound 0.0316 µM): 96.7% and 96.2%
- viability, T/C (compound 0.1 µM): 81.8% and 84.8%
- viability, T/C (compound 0.316 µM): 79% and 74.5%
- viability, T/C (compound 1 µM): 64.4% and 52.7%

- IC50 (curve of compound): 71.1 nM and 96.5 nM
Compound: Nc1ccn(C2OC(CO)C(O)C2(F)F)c(=O)n1 (stereo not drawn)
- viability, T/C (compound 0.000949 µM): 106% and 95.4%
- viability, T/C (compound 0.003 µM): 112% and 89%
- viability, T/C (compound 0.00949 µM): 97.3% and 98.3%
- viability, T/C (compound 0.03 µM): 73.4% and 89.6%
- viability, T/C (compound 0.0949 µM): 43% and 50.5%
- viability, T/C (compound 0.3 µM): 12% and 17.5%

- IC50 (curve of compound): 3960 nM and 4600 nM
Compound: CC1(C)CCC(CN2CCN(c3ccc(C(=O)NS(=O)(=O)c4ccc(NCC5CCOCC5)c([N+](=O)[O-])c4)c(Oc4cnc5[nH]ccc5c4)c3)CC2)=C(c2ccc(Cl)cc2)C1
- viability, T/C (compound 0.0316 µM): 103% and 110%
- viability, T/C (compound 0.1 µM): 112% and 110%
- viability, T/C (compound 0.316 µM): 107% and 115%
- viability, T/C (compound 1 µM): 103% and 111%
- viability, T/C (compound 3.16 µM): 62% and 73.6%
- viability, T/C (compound 10 µM): 0.69% and 0.97%

- IC50 (curve of compound): 31.9 nM and 67 nM
Compound: NS(=O)(=O)OCC1CC(n2ccc3c(NC4CCc5ccccc54)ncnc32)CC1O (stereo not drawn)
- viability, T/C (compound 0.00949 µM): 79% and 92.2%
- viability, T/C (compound 0.03 µM): 51.8% and 75%
- viability, T/C (compound 0.0949 µM): 24.6% and 38.1%
- viability, T/C (compound 0.3 µM): 16.3% and 20.5%
- viability, T/C (compound 0.949 µM): 14.1% and 15.6%
- viability, T/C (compound 3 µM): 9.5% and 9.51%
